Measured values as given in patent publication US8420606B2, “Method of utilizing physiological activity of rare saccharide and composition containing rare saccharide” (priority 2002, dated 2013).
Blank lines part the entries; values can stand above or below the compound they belong to.

Columns and labels:
[1] = tested on: glutamate release from hippocampus; assay: temporary brain ischemia, glutamate outside hippocampus neurons by micro-dialysis; assay type: in vivo, gerbil; settings: pre-administration; compared with effect of D-allose
Protocol: (2) Method: The bilateral common carotid artery of a gerbil was shut off for 5 minutes. After 1 week, the gerbil was sacrificed and a sample was prepared in accordance with the ordinary method, followed by hematoxyline eosin dyeing. The survival rate was measured by counting the number of hippocampus neurons while looking at them under a microscope. Experiments were performed on a normal control group, a group subjected to only ischemia, and a group administrated with 200 mg/kg of D-allose or D-psicose before ischemia. It is known that glutamates released in large amount from the neurons with ischemia are toxic to the neurons. Such a point was examined by fixing the gerbil to a brain position fixing device, perfusing a solution, in which oxidase glutamate is dissolved, to the hippocampus through a probe for micro-dialysis, and measuring the glutamate concentration outside the hippocampus neurons. Also, the inventors have clarified the relationship between the metabolism of glucose and the action mechanism of D-allose with ischemia by pre-administrating D-allose and 2-deoxiglucose.

[2] = tested on: Rat leukocyte (granulocyte); assay: production of active oxygen from leukocyte, LO12 chemiluminescence, zymosan; assay type: cell-based; settings: saccharide 10 mM added to the producing system, zymosan
Protocol: Influences of various kinds of rare saccharides upon production of active oxygen from leukocyte were examined under the conditions given below. In this Example 5, an effect against the production of active oxygen from leukocyte was examined with LO12 chemiluminescence.
(1) Target leukocyte to which the rare saccharides were added: Rat leukocyte (granulocyte) was used.
(2) Rare saccharides added: In addition to D-allose as a rare saccharide belonging to aldose, D-psicose and D-altros as rare saccharides belonging to ketose and D-tallitol belong to polyol were added as other comparative saccharides. Further, D-glucose and D-fructose were employed as saccharides abundant in the natural world.
(3) Experiment method: (1) Changes over time in production of active oxygen from rat leukocyte . . . The time-dependent progress in production of active oxygen caused by adding zymosan particles to rat leukocyte (granulocyte) was examined. Also, the time-dependent progress in production of active oxygen caused under the presence of each of the rare saccharides was examined.
(2) Influences of rare saccharides upon production of active oxygen . . . By adding the various saccharides to the system for producing active oxygen from leukocyte, the amount of produced active oxygen was measured for each saccharide. The concentration of each of the added rare saccharides was set to 10 mM. Also, the measurement was made under the condition without addition of any saccharides.
(3) Effect of rare saccharides upon production of active oxygen . . . The rare saccharides were each added at concentration of 10 mM after the start of phagocytosis and the start of the production of active oxygen subsequent to addition of zymosan to leukocyte.
(4) Concentration dependency of active-oxygen production inhibitory effect of D-allose . . . Concentration dependency of the active-oxygen production inhibitory effect of D-allose was examined. D-allose was added at concentration of 0 mM, 5 mM and 10 mM.

[3] = tested on: Hepatic cancer cells (HepG2); assay: proliferation of cultured cells, MTT method, HepG2; assay type: cell-based, human; settings: saccharide 50 mM, 4 to 5 days
Protocol: (§1) Various kinds of rare saccharides were added at a concentration of 50 mM to culture media under the following conditions, and an influence of each rare saccharide upon the progress of proliferation of cancer cell strains was examined.
(§2) (1) Target cells to which the rare saccharides were added: Hepatic cancer cells (HepG2), uterine cancer cells (He1a), ovary cancer cells (OVCAR3), and skin keratinocyte (HaCaT) were selected as target cells to which the rare saccharides were added.
(§3) (2) Rare saccharides added: In addition to D-allose, glucose and D-altros as rare saccharides belonging to ketose were added, as other comparative saccharides, to the addition target cells. Also, D-fructose was employed as a control.
(§4) (3) Experiment method: A number 3,000-5,000 of addition target cells per type were inoculated into a multi-well plastic dish (hereinafter referred to as a “well”) having 96 wells, and were cultured for 4 to 5 days in a culture medium supplemented with 5 to 10% of Fetal Bovine Serum (FBS) depending on the cell types. D-Allose, D-glucose and D-altros were each added at concentration of 50 mM to the addition target cells per type. Similarly, D-fructose as a control was added at a concentration of 50 mM. To examine the influence upon the cell proliferation, the cell number was measured in units of 24 hours by using the MTT method described below.
(1) Preparation of reagents: A predetermined amount of MTT (tetrazolium salt) was dissolved in PBS(−) sterilized in an autoclave to obtain an MTT solution through filtering and sterilization. An acidic solution was prepared by adding 50 mL of N,N-dimethylformaldehyde and water to a predetermined amount of (20 g) of SDS, thereby obtaining a 100 mL of solution. […]
(2) Test method: The cells were treated with TEP to prepare a cell suspension liquid. […] The absorbance of the liquid was measured at a wavelength of 570 to 600 nm by using a spectrophotometer. After dissolving the colored substance (formazan) in the acid solution, the absorbance can be measured directly by a plate reader.

Daudi = assay: blood-system cancer cell strain proliferation, Coulter Counter, Daudi; assay type: cell-based; settings: 0.05-50 mM, 7 days, D-glucose control
Protocol: (§5) (2) Method: Total 6 kinds of cell strains, i.e., Myeloid (HL-60, THP-1, KG-1), T-cell (MT-2), and B-Cell (Daudi, KS-1), and 3 kinds of rare saccharides (i.e., D-psicose, D-altrose, and D-allose), were employed. The culture medium and the cells were prepared to be 1 mL in total and 1×10^5 in number, respectively. Then, the cell number at each of fourth day and seventh day was counted by using a Coulter Counter. Each rare saccharide was added at concentrations of 0.05, 0.5, 5 and 50 mM, while D-glucose was used as a control.
(§6) Culture Medium: FBS 10% added RPMI1460
(§7) Cultivation Conditions: 37° C., 5% CO2
(§8) Cultivation Vessel: FALCON, MULTIWELL, 12 wells
(§9) Number of Cultivation Days: 7 days
(§10) Saccharides Concentration: 0.05, 0.5, 5, 50 mM

HL-60 = assay: blood-system cancer cell strain proliferation, Coulter Counter, HL60; assay type: cell-based; settings: 0.05-50 mM, 7 days, D-glucose control
Protocol: as §5, §6, §7, §8, §9, §10

[4] = tested on: ovary cancer cells (OVCAR3); assay: proliferation of cultured cells, MTT method, OVCAR3; assay type: cell-based; settings: saccharide 50 mM, 4 to 5 days, MTT
Protocol: as §1, §2, §3, §4
(1) Preparation of reagents: A predetermined amount of MTT (tetrazolium salt) was dissolved in PBS(−) sterilized in an autoclave to obtain an MTT solution through filtering and sterilization. An acidic solution was prepared by adding 50 mL of N,N-dimethylformaldehyde and water to a predetermined amount of (20 g) of SDS, thereby obtaining a 100 mL of solution. About […] of 1N hydrochloric acid was added to the solution for adjustment of a pH-value to 4.7. The solution was preserved at room temperature and warmed up to 37° C. just before the use.
(2) Test method: The cells were treated with TEP to prepare a cell suspension liquid. This cell suspension liquid was pipetted in a predetermined cell-density (300 to 52000 cells/well) to each well (96-well plate: 0.1 mL of culture medium per well). The saccharide as a drug was added in a predetermined amount to each well, followed by cultivation for a whole day and night in a CO2 incubator. Then, 0.5 mg/mL of the MTT solution was added and the resulting culture was incubated for 4 hours in the incubator. Thereafter, the culture medium was completely removed. Then, in a room kept at 37° C., an acid solution was added in amount of 0.1 mL/well. The well plate was placed on a micro-plate mixer and shaken at 37° C. for 20 minutes to dissolve a colored substance (namely, to dissolve “formazan” in the acid solution). The absorbance of the liquid was measured at a wavelength of 570 to 600 nm by using a spectrophotometer. After dissolving the colored substance (formazan) in the acid solution, the absorbance can be measured directly by a plate reader.
(1) Experiment method: The ovary cancer cells (OVCAR3) were selected as target cells to which a rare saccharide was added, and D-allose as the saccharide was added at concentrations of 1 mM, 5 mM, 10 mM, 20 mM, 50 mM and 100 mM. The experimental conditions, such as the method of culturing the ovary cancer cells (OVCAR3) and the method of measuring the cell number (MTT method), were the same as those in Example 1.

[5] = tested on: skin keratinocyte (HaCaT); assay: proliferation of cultured cells, MTT method, HaCaT; assay type: cell-based, human; settings: saccharide 50 mM, 4 to 5 days
Protocol: as §1, §2, §3
(3) Experiment method: A number 3,000-5,000 of addition target cells per type were inoculated into a multi-well plastic dish (hereinafter referred to as a “well”) having 96 wells, and were cultured for 4 to 5 days in a culture medium supplemented with 5 to 10% of Fetal Bovine Serum (FBS) depending on the cell types. […] To examine the influence upon the cell proliferation, the cell number was measured in units of 24 hours by using the MTT method described below. […]
(2) Test method: The cells were treated with TEP to prepare a cell suspension liquid. […] The absorbance of the liquid was measured at a wavelength of 570 to 600 nm by using a spectrophotometer. […]

human albumin = human albumin (Homo sapiens, UniProt P02768); assay: saccharification (glycation) of albumin, glycoalbumin reagent; assay type: biochemical; settings: albumin 3 g/dl
Protocol: (2) Method: After fragmenting albumin into amino acids by using protease K, i.e., glycoalbumin (GA) measurement reagent (made by Oriental Yeast Co., Ltd.), glycolysine was measured by using ketoamine oxydase (see FIG. 38). Glycation of human albumin with various rare saccharides was examined. A sample was prepared through the steps of dissolving 3 g/dl of pure human albumin in PBS and then dissolving each of the rare saccharides so as to prepare a solution in final concentration of 55.5 mM. The prepared solution was filtrated with a filter of 0.25 μm mesh and sterilized, followed by incubation at 37° C. for 7 days. During the incubation, the GA concentration (glycolysine concentration) was measured at intervals of exactly 24 hours. Further, similar experiments were conducted by adding each of the rare saccharides in an albumin solution (final concentration 3 g/dl) and a glucose solution (final concentration 55.5 mM) so that each of the rare saccharides had final concentration of 55.5 mM.

[6] = saccharide 55.5 mM, 37° C., 7 days

Chain of human albumin (P02768 25-609): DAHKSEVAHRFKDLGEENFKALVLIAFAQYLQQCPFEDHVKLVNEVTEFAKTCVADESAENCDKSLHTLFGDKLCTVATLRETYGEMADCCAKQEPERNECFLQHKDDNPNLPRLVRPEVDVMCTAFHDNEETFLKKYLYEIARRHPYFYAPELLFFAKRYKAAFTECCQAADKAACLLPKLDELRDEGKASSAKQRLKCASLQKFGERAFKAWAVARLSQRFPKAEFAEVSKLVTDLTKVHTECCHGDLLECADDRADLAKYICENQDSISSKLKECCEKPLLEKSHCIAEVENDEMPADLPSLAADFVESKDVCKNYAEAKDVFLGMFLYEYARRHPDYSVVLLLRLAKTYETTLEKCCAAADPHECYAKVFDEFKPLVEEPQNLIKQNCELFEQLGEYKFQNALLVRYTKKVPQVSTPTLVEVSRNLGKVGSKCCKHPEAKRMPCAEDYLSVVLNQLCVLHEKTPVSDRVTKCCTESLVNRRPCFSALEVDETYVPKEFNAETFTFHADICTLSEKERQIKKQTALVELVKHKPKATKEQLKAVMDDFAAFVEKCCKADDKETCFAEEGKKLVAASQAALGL

SMILES: O=CC[C@@H](O)[C@H](O)[C@H](O)CO [2-deoxyglucose, reference compound]
glutamate release inhibitory effect [1]: similarly observed

SMILES: OC[C@@H](O)[C@H](O)[C@H](O)[C@H](O)CO [D-tallitol, reference compound]
production of active oxygen from leukocyte [2]: No inhibitory effect

SMILES: O=C[C@@H](O)[C@H](O)[C@H](O)[C@H](O)CO [D-altrose, reference compound]
proliferation of HepG2 cells (cell number over time) [3]: weaker than that of D-allose | Daudi-cell proliferation inhibitory effect (Daudi): showed no effect | HL60 proliferation inhibitory effect (HL-60): showed no effect | proliferation of OVCAR3 cells (cell number over time) [4]: weaker than that of D-allose | production of active oxygen from leukocyte [2]: No inhibitory effect | proliferation of HaCaT cells (cell number over time) [5]: inhibitory effect at a medium level

saccharification rate of albumin under coexistence with glucose (human albumin; saccharide 55.5 mM + D-glucose 55.5 mM): about 100 μmol/day | saccharification rate of albumin (human albumin; [6]): about 50 μmol/day
SMILES: O=C[C@@H](O)[C@@H](O)[C@H](O)[C@H](O)CO [D-mannose, reference compound]

glycation (saccharification) of albumin (human albumin; [6]): do not cause the saccharification
SMILES: O=C(CO)[C@@H](O)[C@H](O)[C@H](O)CO [D-fructose, reference compound]
